In test [1] the target is Nucleotide-binding oligomerization domain-containing protein 2 (Homo sapiens, UniProt Q9HC29). Briefly: PubChem AID 2334. It is filed as functional.
The target of test [2] is Tumor necrosis factor (Homo sapiens, UniProt P01375). Put plainly: TNFa-triggered NF-kB activation inhibitors, SAR follow-up, cell-based, revised (AID 2337). Type of test: functional.
Test [3] has as its system HEK293. Put plainly: cells. As to conditions: Homo sapiens.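 Note: cells exposed to compound for 14 hours overnight before viability readout.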
The target of test [4] is Nucleotide-binding oligomerization domain-containing protein 1 (Homo sapiens, UniProt Q9Y239). Briefly: NOD1 signaling inhibitors, SAR follow-up, revised (AID 2333). Type of test: functional.
Test [5] deals with T1, Tyrosine-protein phosphatase non-receptor type 22 (Homo sapiens, UniProt Q9Y2R2). It is filed as functional.
The target of test [6] is T1, Tyrosine-protein phosphatase non-receptor type 22. Type of test: functional. This is another data set of the same source.
Test [7] has as its target T2, Tyrosine-protein phosphatase non-receptor type 7 (Homo sapiens, UniProt P35236).
T2 sequence (P35236 whole entry): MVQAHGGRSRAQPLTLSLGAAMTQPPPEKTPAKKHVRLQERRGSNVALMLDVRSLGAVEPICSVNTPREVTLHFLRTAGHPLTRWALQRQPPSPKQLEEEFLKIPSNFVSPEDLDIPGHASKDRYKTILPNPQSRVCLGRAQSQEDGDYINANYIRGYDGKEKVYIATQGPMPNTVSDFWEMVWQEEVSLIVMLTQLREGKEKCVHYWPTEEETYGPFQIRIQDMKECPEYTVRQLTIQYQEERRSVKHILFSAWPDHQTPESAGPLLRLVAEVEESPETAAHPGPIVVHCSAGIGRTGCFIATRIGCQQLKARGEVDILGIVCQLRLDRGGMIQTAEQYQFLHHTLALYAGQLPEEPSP
Type of test: functional.

In test [8] the target is Delta-type opioid receptor (Homo sapiens, UniProt P41143). Briefly: SAR Analysis of Agonists of the DOR Receptor using an Image-Based Assay - Set 3. [Related pubchem assays (depositor defined):AID1777, AID1786]. Type of test: functional.
For test [9], the target named is T3, Kappa-type opioid receptor (Homo sapiens, UniProt P41145). Put plainly: KOR agonist analogs, arrestin-GFP redistribution, SAR follow-up, imaging, image-based, set 3 (AID 488833). It is filed as functional.
In test [10] the target is Mu-type opioid receptor (Homo sapiens, UniProt P35372). Briefly: SAR Analysis of Agonists of the MOR Receptor using an Image-Based Assay - Set 3. [Related pubchem assays (depositor defined):AID1777, AID1785, AID1786, AID1966, AID2133, AID2136, AID2284, AID2285, AID2352]. It is filed as functional.
The target of test [11] is T3, Kappa-type opioid receptor. Put plainly: SAR analysis of small molecule agonists of the kappa opioid receptor via a luminescent beta-arrestin assay - Set 3. [Related pubchem assays (depositor defined):AID1777, AID1785, AID1786, AID1966, AID2133, AID2136, AID2284, AID2500]. It is filed as functional.

Each structure is given as a SMILES string. Calls of active or inactive are those of the source. Cut-off read from the data, not from the text of the source, for most assays here: actives have a measured IC50 and inactives only a lower limit.

The term IC50 denotes the point on the concentration scale where inhibition reaches its midpoint. As usually defined, the EC50 is the concentration needed to bring the measured effect to its halfway point.

T1 sequence (Q9Y2R2 whole entry): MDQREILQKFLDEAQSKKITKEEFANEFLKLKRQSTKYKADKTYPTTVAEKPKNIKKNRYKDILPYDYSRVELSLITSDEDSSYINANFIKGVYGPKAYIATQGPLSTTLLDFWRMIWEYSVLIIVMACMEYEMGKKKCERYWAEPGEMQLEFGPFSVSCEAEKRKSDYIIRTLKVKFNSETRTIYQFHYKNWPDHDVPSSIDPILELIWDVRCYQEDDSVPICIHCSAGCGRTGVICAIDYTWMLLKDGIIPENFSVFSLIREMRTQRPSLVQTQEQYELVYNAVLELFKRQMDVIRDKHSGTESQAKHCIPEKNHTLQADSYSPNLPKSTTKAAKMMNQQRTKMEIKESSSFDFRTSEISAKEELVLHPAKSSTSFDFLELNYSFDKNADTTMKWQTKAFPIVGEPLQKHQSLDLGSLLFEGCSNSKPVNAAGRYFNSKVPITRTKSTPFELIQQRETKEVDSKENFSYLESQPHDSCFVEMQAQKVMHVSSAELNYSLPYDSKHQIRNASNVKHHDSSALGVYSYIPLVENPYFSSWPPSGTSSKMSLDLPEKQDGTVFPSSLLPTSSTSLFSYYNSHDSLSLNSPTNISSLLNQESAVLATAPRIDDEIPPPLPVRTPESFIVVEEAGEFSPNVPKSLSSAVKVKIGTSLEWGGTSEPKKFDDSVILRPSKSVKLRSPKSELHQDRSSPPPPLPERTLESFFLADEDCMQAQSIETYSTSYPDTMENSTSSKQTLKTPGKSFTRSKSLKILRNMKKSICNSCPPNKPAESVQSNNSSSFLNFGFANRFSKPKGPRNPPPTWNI
T3 sequence (P41145 whole entry): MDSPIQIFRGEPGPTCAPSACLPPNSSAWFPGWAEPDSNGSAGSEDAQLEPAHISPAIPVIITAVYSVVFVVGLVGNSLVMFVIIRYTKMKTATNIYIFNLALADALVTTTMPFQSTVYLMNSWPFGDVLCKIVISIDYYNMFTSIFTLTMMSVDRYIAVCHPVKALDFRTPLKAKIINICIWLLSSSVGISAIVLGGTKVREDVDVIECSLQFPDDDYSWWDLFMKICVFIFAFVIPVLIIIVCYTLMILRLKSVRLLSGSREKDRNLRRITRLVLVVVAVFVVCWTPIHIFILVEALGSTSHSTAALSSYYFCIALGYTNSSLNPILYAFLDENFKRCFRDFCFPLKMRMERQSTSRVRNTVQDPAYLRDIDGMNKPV
Chain of Delta-type opioid receptor (P41143 whole entry): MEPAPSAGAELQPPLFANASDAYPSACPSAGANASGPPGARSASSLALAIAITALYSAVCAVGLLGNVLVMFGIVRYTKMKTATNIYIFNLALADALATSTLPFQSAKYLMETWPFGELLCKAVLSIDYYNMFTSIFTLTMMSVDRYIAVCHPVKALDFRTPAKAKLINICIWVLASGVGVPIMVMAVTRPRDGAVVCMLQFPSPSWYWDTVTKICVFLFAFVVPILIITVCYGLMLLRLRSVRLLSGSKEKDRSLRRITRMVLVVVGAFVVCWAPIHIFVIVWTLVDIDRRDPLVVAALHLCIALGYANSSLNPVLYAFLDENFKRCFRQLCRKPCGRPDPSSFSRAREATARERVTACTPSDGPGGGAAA
Chain of Tumor necrosis factor (P01375 whole entry): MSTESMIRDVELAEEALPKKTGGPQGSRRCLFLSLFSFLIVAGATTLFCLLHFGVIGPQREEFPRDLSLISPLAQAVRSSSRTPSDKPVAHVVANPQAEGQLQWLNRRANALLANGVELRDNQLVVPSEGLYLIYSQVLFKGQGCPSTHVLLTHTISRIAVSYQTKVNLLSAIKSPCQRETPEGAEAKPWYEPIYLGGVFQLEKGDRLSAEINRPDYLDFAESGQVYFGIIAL
Chain of Nucleotide-binding oligomerization domain-containing protein 2 (Q9HC29 whole entry, the tested form may be a part): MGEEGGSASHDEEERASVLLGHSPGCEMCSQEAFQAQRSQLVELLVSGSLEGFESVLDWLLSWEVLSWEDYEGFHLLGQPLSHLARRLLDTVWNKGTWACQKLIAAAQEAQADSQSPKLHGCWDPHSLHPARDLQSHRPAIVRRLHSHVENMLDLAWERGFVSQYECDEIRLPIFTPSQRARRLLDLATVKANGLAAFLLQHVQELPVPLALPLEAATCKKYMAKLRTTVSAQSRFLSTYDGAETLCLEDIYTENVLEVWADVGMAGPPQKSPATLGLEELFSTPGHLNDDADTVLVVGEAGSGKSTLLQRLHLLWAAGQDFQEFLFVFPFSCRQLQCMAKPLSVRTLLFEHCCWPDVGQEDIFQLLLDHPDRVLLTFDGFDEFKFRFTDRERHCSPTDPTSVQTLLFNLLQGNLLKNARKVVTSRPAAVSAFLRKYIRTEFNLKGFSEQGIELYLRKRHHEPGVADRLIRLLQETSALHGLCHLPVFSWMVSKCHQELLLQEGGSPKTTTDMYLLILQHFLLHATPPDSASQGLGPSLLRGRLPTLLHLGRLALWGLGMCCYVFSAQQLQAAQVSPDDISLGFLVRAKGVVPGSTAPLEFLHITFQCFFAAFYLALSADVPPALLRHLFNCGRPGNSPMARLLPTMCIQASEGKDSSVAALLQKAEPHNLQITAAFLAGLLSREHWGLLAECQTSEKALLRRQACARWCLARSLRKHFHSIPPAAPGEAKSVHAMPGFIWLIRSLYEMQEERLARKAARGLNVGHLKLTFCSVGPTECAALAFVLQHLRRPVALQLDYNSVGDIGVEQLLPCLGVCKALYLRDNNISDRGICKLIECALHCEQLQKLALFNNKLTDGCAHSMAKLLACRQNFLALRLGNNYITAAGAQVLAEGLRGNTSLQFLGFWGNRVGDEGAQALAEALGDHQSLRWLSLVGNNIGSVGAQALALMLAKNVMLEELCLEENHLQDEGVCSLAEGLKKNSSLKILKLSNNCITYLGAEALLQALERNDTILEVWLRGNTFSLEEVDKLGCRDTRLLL
Chain of Mu-type opioid receptor (P35372 whole entry): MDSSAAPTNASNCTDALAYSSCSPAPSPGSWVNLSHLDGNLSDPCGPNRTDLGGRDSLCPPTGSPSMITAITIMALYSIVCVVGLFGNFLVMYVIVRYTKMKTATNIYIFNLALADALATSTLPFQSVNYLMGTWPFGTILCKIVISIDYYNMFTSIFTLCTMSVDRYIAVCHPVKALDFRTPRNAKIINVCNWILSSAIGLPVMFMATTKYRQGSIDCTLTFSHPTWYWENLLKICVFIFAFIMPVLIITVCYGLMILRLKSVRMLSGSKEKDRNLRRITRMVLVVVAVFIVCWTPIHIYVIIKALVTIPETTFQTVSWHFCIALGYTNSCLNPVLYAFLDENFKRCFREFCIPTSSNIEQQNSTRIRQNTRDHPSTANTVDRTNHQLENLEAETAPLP
Chain of Nucleotide-binding oligomerization domain-containing protein 1 (Q9Y239 whole entry, the tested form may be a part): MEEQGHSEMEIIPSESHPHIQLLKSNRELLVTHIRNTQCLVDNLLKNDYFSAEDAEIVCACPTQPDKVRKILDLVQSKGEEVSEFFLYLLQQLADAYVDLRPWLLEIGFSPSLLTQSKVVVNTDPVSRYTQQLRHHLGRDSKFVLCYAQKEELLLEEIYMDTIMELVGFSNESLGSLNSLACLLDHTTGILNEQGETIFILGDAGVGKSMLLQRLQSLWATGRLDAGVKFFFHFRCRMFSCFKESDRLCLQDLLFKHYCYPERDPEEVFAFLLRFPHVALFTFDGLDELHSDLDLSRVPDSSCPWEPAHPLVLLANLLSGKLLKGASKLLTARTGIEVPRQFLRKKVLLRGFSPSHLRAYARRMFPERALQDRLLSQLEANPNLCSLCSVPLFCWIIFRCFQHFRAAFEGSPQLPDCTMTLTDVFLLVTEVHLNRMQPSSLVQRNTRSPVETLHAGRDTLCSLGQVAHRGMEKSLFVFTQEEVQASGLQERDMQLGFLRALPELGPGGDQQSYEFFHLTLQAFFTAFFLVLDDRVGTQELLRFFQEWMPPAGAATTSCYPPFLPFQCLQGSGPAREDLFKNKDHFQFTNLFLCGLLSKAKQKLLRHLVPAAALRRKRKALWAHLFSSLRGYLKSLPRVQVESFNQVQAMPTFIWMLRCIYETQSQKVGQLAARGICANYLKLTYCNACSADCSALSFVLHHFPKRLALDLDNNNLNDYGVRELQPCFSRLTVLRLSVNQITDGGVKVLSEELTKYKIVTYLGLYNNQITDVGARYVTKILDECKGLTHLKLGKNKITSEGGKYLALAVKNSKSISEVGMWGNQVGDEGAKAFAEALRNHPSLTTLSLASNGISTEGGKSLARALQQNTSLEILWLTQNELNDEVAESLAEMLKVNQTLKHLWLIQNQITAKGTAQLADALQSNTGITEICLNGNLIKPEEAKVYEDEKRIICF

In the case of `Cc1ccc(C(=O)Nc2sc3c(c2C(=O)O)CCCC3)o1`, the IC50 in [1], in test [2], in test [3] and in test [4] was > 20 µM (inactive) throughout.
Regarding `Cc1cc(C)nc(NC(=O)c2cc(-c3ccc(C)s3)nc3ccccc23)c1`, the IC50 in [5], in [6] and in test [7] was > 79.4 µM (inactive) in each case.
Turning to `Fc1cc(F)cc(CSc2nnc(-c3ccccn3)n2Cc2ccco2)c1`, the EC50 in test [8] is > 64 µM (inactive); in [9], 20.6 µM (inactive); in [10], > 32 µM (inactive); in [11], 7.89 µM (active).

Source of the values: ChEMBL document CHEMBL1201862, “PubChem BioAssay data set” (2004).
